Experimental data published in patent publication US4740233A, “Substituted 1,2,4-triazolo[1,5-a]-pyrimidine-2-sulfonamides and compositions and methods of controlling undesired vegetation and suppressing the nitrification of ammonium nitrogen in soil” (The Dow Chemical Company, priority 1986, dated 1988).

Tests used:
sugar beet = test: Preemergent control of plant species; type: in vivo, Beta saccharifera; conditions: Beta vulgaris, pre-emergence, 336 h; 0.25 lb/acre; read-out: percent preemergent control
In short: (§1)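 Seeds sown in agricultural soil beds in a greenhouse received aqueous emulsions of test compositions applied uniformly over the bed surface at the listed rates; water-treated beds served as control. After two weeks under greenhouse growth conditions, control was scored as growth reduction versus untreated plants of the same species.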

barnyardgrass [1] = test: Preemergent control of plant species; type: in vivo, Echinochloa crusgalli; conditions: Echinochloa crus-galli, pre-emergence, 336 h; 0.25 lb/acre; read-out: percent preemergent control
In short: as §1

jimsonweed = test: Postemergent control of plant species; type: in vivo, Datura stramonium; conditions: Datura stramonium, post-emergence, 336 h, read-out: percent postemergent control
In short: (§2)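 Compounds were taken up in acetone at twice the final concentration, then diluted with an equal volume of water containing 0.1% surfactant and sprayed onto greenhouse-grown plants at the 2-4 leaf stage. Plants were kept about two weeks under growth conditions; control is growth reduction relative to untreated plants of the same species.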

velvetleaf [2] = test: Preemergent control of plant species; type: in vivo, Abutilon theophrasti; conditions: Abutilon theophrasti, pre-emergence, 336 h; 0.25 lb/acre; read-out: percent preemergent control
In short: as §1

corn [3] = test: Preemergent control of plant species; type: in vivo, Zea mays; conditions: Zea mays, pre-emergence, 336 h; 0.25 lb/acre; read-out: percent preemergent control
In short: as §1

rice [4] = test: Control of aquatic plant species (paddy water); type: in vivo, Oryza sativa; conditions: Oryza sativa, 216 h, nine days, read-out: Percent control; for pest or weed control at 1000 g/ha: 1.0 Kg/Ha
In short: (§3)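 Seedlings at the 1-2 inch stage were transplanted into about 2 inches of soil and flooded to roughly 1 inch. An acetone concentrate of test chemical was injected into the paddy water, with the injected volume varied to set concentration. Percent control was rated nine days after application.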

velvetleaf [5] = test: Postemergent control of plant species; type: in vivo, Abutilon theophrasti; conditions: Abutilon theophrasti, post-emergence, 336 h, read-out: percent postemergent control
In short: as §2

yellow nutsedge [6] = test: Control of aquatic plant species (paddy water); type: in vivo, Cyperus esculentus; conditions: Cyperus, 216 h, nine days, read-out: Percent control; for pest or weed control at 1000 g/ha: 1.0 Kg/Ha
In short: as §3

sprangletop = test: Control of aquatic plant species (paddy water); type: in vivo, Leptochloa filiformis; conditions: Leptochloa filiformis, 216 h, nine days, read-out: Percent control; for pest or weed control at 1000 g/ha: 1.0 Kg/Ha
In short: as §3

rice [7] = test: Preemergent control of plant species; type: in vivo, Oryza sativa; conditions: Oryza sativa, pre-emergence, 336 h; 0.25 lb/acre; read-out: percent preemergent control
In short: as §1

yellow foxtail = test: Postemergent control of plant species; type: in vivo, Setaria lutescens; conditions: Setaria, post-emergence, 336 h, read-out: percent postemergent control
In short: as §2

barnyardgrass [8] = test: Control of aquatic plant species (paddy water); type: in vivo, Echinochloa crusgalli; conditions: Echinochloa crus-galli, 216 h, nine days, read-out: Percent control; for pest or weed control at 1000 g/ha: 1.0 Kg/Ha
Protocol: In testing for such utility, the plant species to be tested were transplanted into 16 oz. containers into about 2 inches of soil when they were in the 1-2 inch stage and then flooded to a depth of about 1 inch. An acetone concentrate of the chemical to be tested was then injected into the paddy water, the volume injected being varied as desired to provide the desired concentration. Percent control was evaluated nine days after application.

sorghum [9] = test: Postemergent control of plant species; type: in vivo, Sorghum vulgare; conditions: Sorghum, post-emergence, 336 h, read-out: percent postemergent control
In short: as §2

corn [10] = test: Postemergent control of plant species; type: in vivo, Zea mays; conditions: Zea mays, post-emergence, 336 h, read-out: percent postemergent control
In short: as §2

yellow nutsedge [11] = test: Preemergent control of plant species; type: in vivo, Cyperus esculentus; conditions: Cyperus, pre-emergence, 336 h; 0.25 lb/acre; read-out: percent preemergent control
In short: as §1

johnson grass = test: Postemergent control of plant species; type: in vivo, Sorghum halepense; conditions: Sorghum halepense, post-emergence, 336 h, read-out: percent postemergent control
In short: as §2

cotton = test: Postemergent control of plant species; type: in vivo, Gossypium spp.; conditions: Gossypium hirsutum, post-emergence, 336 h, read-out: percent postemergent control
In short: as §2

sorghum [12] = test: Preemergent control of plant species; type: in vivo, Sorghum vulgare; conditions: Sorghum, pre-emergence, 336 h; 0.25 lb/acre; read-out: percent preemergent control
In short: as §1

[13] = tested on: annual sugar beet variety (SLC03); test: Plant growth regulator activity, postemergence; type: in vivo; conditions: Beta vulgaris, post-emergence, 672 h, 4 weeks after spraying; read-out: Bolting Inhibition (postemergence), concentration with observed effect
From the text: Using a regular biennial variety, even a bolting-susceptible variety would require a cold treatment of around 10-16 weeks plus a hormone treatement in conjunction with specific light intensities. Thus, for a screening organism, we selected one which would consistently produce bolting on a regular schedule. The screen is run with an annual sugar beet variety (SLC03) provided by Dr. Richard J. Hecker, Fort Collins, Colo. This variety is an inbred which bolts in the 6- to 8-leaf stage without any need for vernalization. This allows the screen to be run entirely in the greenhouse with all 110 chemical compounds tested on one tray. The sugarbeets are grown in 3×3 inch square pots in a greenhouse sandy loam potting mix. The sugarbeets are sprayed with test compounds when they are 2 to 3 weeks old (2 true leaves). The compounds are dissolved in acetone and diluted with water containing Tween 20 as a wetting agent. The concentration of acetone in the final spray is 20% and the concentration of Tween 20 is 0.05 percent. The plants are examined for the appearance of a bolt 4 weeks after spraying.

| Structure (SMILES) | plant injury at 280.212 g/ha (sugar beet) [%] | pest or weed control at 280.212 g/ha (barnyardgrass [1]) [%] | pest or weed control at 500 ppm (jimsonweed) [%] | pest or weed control at 280.212 g/ha (velvetleaf [2]) [%] | plant injury at 280.212 g/ha (corn [3]) [%] | pest or weed control at 1000 g/ha (rice [4]) [%] | pest or weed control at 500 ppm (velvetleaf [5]) [%] | pest or weed control at 1000 g/ha (yellow nutsedge [6]) [%] | pest or weed control at 1000 g/ha (sprangletop) [%] | plant injury at 280.212 g/ha (rice [7]) [%] | pest or weed control at 500 ppm (yellow foxtail) [%] | pest or weed control at 1000 g/ha (barnyardgrass [8]) [%] | plant injury at 500 ppm (sorghum [9]) [%] | plant injury at 500 ppm (corn [10]) [%] | pest or weed control at 280.212 g/ha (yellow nutsedge [11]) [%] | pest or weed control at 500 ppm (johnson grass) [%] | plant injury at 500 ppm (cotton) [%] | plant injury at 280.212 g/ha (sorghum [12]) [%] | further results |
| --- | --- | --- | --- | --- | --- | --- | --- | --- | --- | --- | --- | --- | --- | --- | --- | --- | --- | --- | --- |
| Cc1cc(C)n2nc(S(=O)(=O)Nc3ccccc3[N+](=O)[O-])nc2n1 [Compound 12] | 98 | 40 | 70 | 30 | 50 | 70 | 95 | 95 | 0 | 10 | 20 | 97 | 75 | 10 | 50 | 55 | – | – | – |
| CC(=O)N(c1c(Cl)cccc1Cl)S(=O)(=O)c1nc2nc(C)cc(C)n2n1 [Compound 262] | 100 | 90 | 100 | 100 | 80 | – | 100 | – | – | 95 | 100 | – | 90 | 50 | 100 | 100 | 100 | – | – |
| CCc1cccc(CC)c1NS(=O)(=O)c1nc2nc(C)cc(C)n2n1 [Compound 33] | 50 | 50 | 40 | 0 | 0 | 97 | 80 | 97 | 90 | 0 | 0 | 97 | 80 | 25 | – | 60 | 50 | 0 | – |
| Cc1cc(C)n2nc(S(=O)(=O)Nc3ccccc3I)nc2n1 [Compound 6] | 95 | 80 | 30 | 60 | 0 | 93 | 90 | 90 | 20 | 80 | 0 | 99 | 80 | 0 | 50 | 80 | 60 | 50 | – |
| COC(=O)c1cccc(F)c1NS(=O)(=O)c1nc2nc(C)cc(C)n2n1 [Compound 26] | 100 | 98 | 100 | 95 | 100 | – | 100 | – | – | 100 | 90 | – | 90 | 80 | 100 | 100 | 100 | – | pest or weed control at 125 g/ha (rice [4]; 0.125 Kg/Ha): 93%; pest or weed control at 125 g/ha (yellow nutsedge [6]; 0.125 Kg/Ha): 95%; pest or weed control at 125 g/ha (sprangletop; 0.125 Kg/Ha): 0%; pest or weed control at 125 g/ha (barnyardgrass [8]; 0.125 Kg/Ha): 90% |
| Cc1cc(C)n2nc(S(=O)(=O)Nc3ccc(Cl)cc3C(F)(F)F)nc2n1 [Compound 34] | 90 | 20 | 90 | 80 | 0 | – | 100 | – | – | 40 | 0 | – | 60 | 0 | 70 | 20 | 70 | 90 | – |
| Cc1cc(C)n2nc(S(=O)(=O)Nc3ccccc3F)nc2n1 [Compound 8] | 90 | 75 | 90 | 60 | 80 | 97 | 75 | 93 | 0 | 90 | 25 | 99 | 70 | 20 | 75 | 90 | – | – | minimal effective concentration [13]: 50 µg/mL |
